Measured values from PubChem BioAssay (NCI).
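48-hour exposure; five concentrations; linearly interpolated endpoints. At the GI50, growth is halved. The concentration for full growth arrest is given as TGI.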

What was measured:
Test in all cases: NCI-60 cell line screen, 48 h
[1] = system: 786-0 renal
[2] = system: A498 renal
[3] = system: A549 NSCLC
[4] = system: ACHN renal
[5] = system: BT-549 breast
[6] = system: CAKI-1 renal
[7] = system: CCRF-CEM leukemia
[8] = system: COLO 205 colon
[9] = system: DU-145 prostate
[10] = system: EKVX NSCLC
[11] = system: HCC-2998 colon
[12] = system: HCT-116 colon
[13] = system: HCT-15 colon
[14] = system: HOP-62 NSCLC
[15] = system: HOP-92 NSCLC
[16] = system: HS 578T breast
[17] = system: HT29 colon
[18] = system: IGROV1 ovarian
[19] = system: KM12 colon
[20] = system: LOX IMVI melanoma
[21] = system: M14 melanoma
[22] = system: MALME-3M melanoma
[23] = system: MCF7 breast
[24] = system: MDA-MB-231 breast
[25] = system: MDA-MB-435
[26] = system: NCI-H226 lung
[27] = system: NCI-H460 lung
[28] = system: NCI-H522 lung
[29] = system: NCI/ADR-RES ovarian
[30] = system: OVCAR-3 ovarian
[31] = system: OVCAR-4 ovarian
[32] = system: OVCAR-5 ovarian
[33] = system: OVCAR-8 ovarian
[34] = system: PC-3 prostate
[35] = system: RPMI-8226 leukemia
[36] = system: RXF 393 renal
[37] = system: SF-268 CNS
[38] = system: SF-295 CNS
[39] = system: SF-539 CNS
[40] = system: SK-MEL-2 melanoma
[41] = system: SK-MEL-28 melanoma
[42] = system: SK-MEL-5 melanoma
[43] = system: SK-OV-3 ovarian
[44] = system: SN12C renal
[45] = system: SNB-19 CNS
[46] = system: SNB-75 CNS
[47] = system: SW-620 colon
[48] = system: T-47D breast
[49] = system: TK-10 renal
[50] = system: U251 CNS
[51] = system: UACC-257 melanoma
[52] = system: UACC-62 melanoma
[53] = system: UO-31 renal
[54] = system: HL-60(TB) leukemia
[55] = system: K-562 leukemia
[56] = system: MOLT-4 leukemia
[57] = system: NCI-H23 lung
[58] = system: SR leukemia

N#Cc1nc(-c2ccccc2)oc1S(=O)(=O)N1CCCCC1
GI50 [1]: 18.7 µM | TGI [1]: 52.4 µM | GI50 [2]: > 100000 nM | TGI [2]: > 100 µM | GI50 [3]: 71.7 µM | TGI [3]: > 100 µM | GI50 [4]: 4.98 µM | TGI [4]: 16.5 µM | GI50 [5]: 13.7 µM | TGI [5]: 48.8 µM | GI50 [6]: 7.37 µM | TGI [6]: 20.3 µM | GI50 [7]: 2360 nM | TGI [7]: > 100 µM | GI50 [8]: 2670 nM | TGI [8]: 7.1 µM | GI50 [9]: 15.3 µM | TGI [9]: 28.6 µM | GI50 [10]: > 100000 nM | TGI [10]: > 100 µM | GI50 [11]: 17.1 µM | TGI [11]: 32.8 µM | GI50 [12]: 4.95 µM | TGI [12]: 23.6 µM | GI50 [13]: 5.32 µM | TGI [13]: 25.8 µM | GI50 [14]: > 100 µM | TGI [14]: > 100 µM | GI50 [15]: 6.29 µM | TGI [15]: 19.6 µM | GI50 [16]: 23.1 µM | TGI [16]: 87.2 µM | GI50 [17]: 12.4 µM | TGI [17]: 28.4 µM | GI50 [18]: 28.7 µM | TGI [18]: > 100 µM | GI50 [19]: 29.1 µM | TGI [19]: > 100 µM | GI50 [20]: 1510 nM | TGI [20]: 5.24 µM | GI50 [21]: 11.2 µM | TGI [21]: 61 µM | GI50 [22]: 10.8 µM | TGI [22]: 32 µM | GI50 [23]: 9.02 µM | TGI [23]: 26.9 µM | GI50 [24]: 25.4 µM | TGI [24]: 80.7 µM | GI50 [25]: 14.6 µM | TGI [25]: 31.2 µM | GI50 [26]: 10.3 µM | TGI [26]: 26.5 µM | GI50 [27]: 26.6 µM | TGI [27]: > 100 µM | GI50 [28]: 2080 nM | TGI [28]: 7.94 µM | GI50 [29]: 30.8 µM | TGI [29]: > 100 µM | GI50 [30]: 10.5 µM | TGI [30]: 24.4 µM | GI50 [31]: 14.2 µM | TGI [31]: 32.3 µM | GI50 [32]: 21.9 µM | TGI [32]: 52.8 µM | GI50 [33]: 22.1 µM | TGI [33]: 56.5 µM | GI50 [34]: 19.4 µM | TGI [34]: 53.6 µM | GI50 [35]: 17.5 µM | TGI [35]: 49.5 µM | GI50 [36]: 9.52 µM | TGI [36]: 22.7 µM | GI50 [37]: 26.6 µM | TGI [37]: > 100 µM | GI50 [38]: > 100 µM | TGI [38]: > 100 µM | GI50 [39]: 17.5 µM | TGI [39]: 34.3 µM | GI50 [40]: 15.3 µM | TGI [40]: 45.1 µM | GI50 [41]: 17.5 µM | TGI [41]: 33.8 µM | GI50 [42]: 30.9 µM | TGI [42]: > 100 µM | GI50 [43]: > 100 µM | TGI [43]: > 100 µM | GI50 [44]: 14.9 µM | TGI [44]: 47.5 µM | GI50 [45]: 72.3 µM | TGI [45]: > 100 µM | GI50 [46]: 18.3 µM | TGI [46]: 43.8 µM | GI50 [47]: 4170 nM | TGI [47]: 18.1 µM | GI50 [48]: 16.2 µM | TGI [48]: 36.8 µM | GI50 [49]: 22.1 µM | TGI [49]: 63.2 µM | GI50 [50]: 17.5 µM | TGI [50]: 36.8 µM | GI50 [51]: 17.8 µM | TGI [51]: 50.4 µM | GI50 [52]: 19.5 µM | TGI [52]: 49.6 µM | GI50 [53]: 15.1 µM | TGI [53]: 28.3 µM

O=C1CC2(CCOCC2)Oc2ncccc21
GI50 [1]: 2.38 µM | TGI [1]: 6.33 µM | GI50 [2]: 2380 nM | TGI [2]: 9.57 µM | GI50 [3]: 4.94 µM | TGI [3]: 19.1 µM | GI50 [4]: 1.81 µM | TGI [4]: 3.21 µM | GI50 [5]: 1.84 µM | TGI [5]: 3.36 µM | GI50 [6]: 1.6 µM | TGI [6]: 3.04 µM | GI50 [7]: 2110 nM | TGI [7]: 4.74 µM | GI50 [8]: 1910 nM | TGI [8]: 4 µM | GI50 [9]: 2.98 µM | TGI [9]: 8.42 µM | GI50 [10]: 1840 nM | TGI [10]: 3.87 µM | GI50 [11]: 1.78 µM | TGI [11]: 3.4 µM | GI50 [12]: 1.87 µM | TGI [12]: 3.59 µM | GI50 [13]: 1.7 µM | TGI [13]: 3.34 µM | GI50 [54]: 2230 nM | TGI [54]: 5.2 µM | GI50 [14]: 3.24 µM | TGI [14]: 13.1 µM | GI50 [15]: 1.67 µM | TGI [15]: 3.3 µM | GI50 [16]: 2.54 µM | TGI [16]: 8.26 µM | GI50 [17]: 2.19 µM | TGI [17]: 4.85 µM | GI50 [18]: 1.88 µM | TGI [18]: 3.86 µM | GI50 [55]: 1990 nM | TGI [55]: > 100 µM | GI50 [19]: 2.76 µM | TGI [19]: 7.65 µM | GI50 [21]: 1.85 µM | TGI [21]: 3.76 µM | GI50 [22]: 1.79 µM | TGI [22]: 3.51 µM | GI50 [23]: 2.8 µM | TGI [23]: 12.8 µM | GI50 [24]: 1.7 µM | TGI [24]: 3.15 µM | GI50 [25]: 2 µM | TGI [25]: 4.3 µM | GI50 [56]: 2110 nM | TGI [56]: 4.8 µM | GI50 [26]: 2.06 µM | TGI [26]: 4.59 µM | GI50 [57]: 1890 nM | TGI [57]: 3.86 µM | GI50 [27]: 2.3 µM | TGI [27]: 5.61 µM | GI50 [28]: 2000 nM | TGI [28]: 4.15 µM | GI50 [29]: 2.05 µM | TGI [29]: 4.99 µM | GI50 [31]: 2.1 µM | TGI [31]: 4.82 µM | GI50 [32]: 1.7 µM | TGI [32]: 3.18 µM | GI50 [33]: 2.19 µM | TGI [33]: 4.92 µM | GI50 [34]: 2.42 µM | TGI [34]: 6.03 µM | GI50 [35]: 0.545 µM | TGI [35]: 4.7 µM | GI50 [36]: 1.77 µM | TGI [36]: 3.41 µM | GI50 [37]: 2.55 µM | TGI [37]: 7.7 µM | GI50 [38]: 12.5 µM | TGI [38]: 25.4 µM | GI50 [39]: 1.74 µM | TGI [39]: 3.22 µM | GI50 [40]: 2.73 µM | TGI [40]: 7.32 µM | GI50 [41]: 1.81 µM | TGI [41]: 3.36 µM | GI50 [42]: 2.09 µM | TGI [42]: 4.34 µM | GI50 [43]: 15.7 µM | TGI [43]: 29.3 µM | GI50 [44]: 1.84 µM | TGI [44]: 3.44 µM | GI50 [45]: 2.05 µM | TGI [45]: 4.83 µM | GI50 [46]: 2.07 µM | TGI [46]: 12.4 µM | GI50 [58]: 974 nM | TGI [58]: 4.69 µM | GI50 [47]: 1770 nM | TGI [47]: 3.5 µM | GI50 [48]: 4.66 µM | TGI [48]: 26.9 µM | GI50 [49]: 6.68 µM | TGI [49]: 37.1 µM | GI50 [50]: 1.83 µM | TGI [50]: 3.63 µM | GI50 [51]: 2.53 µM | TGI [51]: 7.53 µM | GI50 [52]: 1.7 µM | TGI [52]: 3.22 µM | GI50 [53]: 2.63 µM | TGI [53]: 12.8 µM
